Experimental data: patent US8940936B2, “Aryloxy phenoxy acrylic compound having HIF-1 inhibition activity, method for preparing same, and pharmaceutical composition containing same as an active ingredient” (Korea Research Institute of Bioscience and Biotechnology, priority 2010, dated 2015)
Several values for one entry are separate records, joined by “and”; a condition that tells them apart may be missing. Identical values can stand only once. One block for each molecule: values may come before it.

How the values were obtained:
[1] = test system: B16F10 melanoma cell line; experiment: Cancer metastasis inhibition activity, B16F10 melanoma lung colonies in C57BL mice; type: in vivo, mouse; conditions: Example 1 20 mg/kg/day, topotecan 2 mg/kg/2 day; for Metastasis colony number: day 12, ip; for Metastasis inhibition rate (%): day 12, vs control
Protocol: (§1) Particularly, the experimental group composed of 6 female mice (C57BL) at 6 weeks was transplanted with B16F10 melanoma cell line. After the cancer cells were grown, the mice were treated with the compound of formula 1 via intraperitoneal injection at the dose of […] every day for 12 days. Inhibition of angiogenesis and the tumor growth were observed. In the meantime, the control group was treated with purified water every day. The comparative group was treated with topotecan at the dose of 2 mg/kg once every other day. Weight changes and cancer metastasis were measured and the results are shown in Table 9, Table 10, and FIG. 10.
As shown in Table 10 and FIG. 10, the mice were sacrificed on the last day of experiment (day 12) and then cancer colonies in lung were counted by the naked eye.

[2] = Mouse weight changes and symptoms, repeated intravenous administration (Caki-1 model); type: in vivo; conditions: for Mouse weight changes (%): iv, Example 1 20 mg/kg/day, topotecan 2 mg/kg/day
Protocol: (§2) Female nude mice at 6 weeks (BALB/c nu/nu, Charles River) were raised in a germ-free facility where temperature and humidity were maintained at proper levels during the whole experimental period. After anesthetizing each mouse, the human kidney cancer cell line Caki-1 was transplanted in kidney tissues at the density of 4×10^7 cells/mouse, and then the opened kidney was sealed with surgical clips. After transplanting the kidney cancer cell line, the tumor volume was measured with calipers. When the tumor volume reached 52.7 mm^3, the compound of the present invention prepared in example 1 was treated thereto. Particularly, for the experimental group, the compound of example 1 was dissolved in the solvent composed of cremophor (10%), DMAC (10%), and pH 10 buffer […], which is indicated as ‘solvent B’ hereinafter, at the concentration of 20 mg/kg. The prepared compound solution was intravenously administered to the experimental group mice once a day at the dose of […]. The control was treated with the solvent B only without the compound once a day via oral administration at the dose of 15 ml/kg. The comparative group was treated with the solvent B containing topotecan (2 mg/kg) via intravenous injection once a day at the dose of 15 ml/kg. The weight and the tumor volume were measured once a day on day 0, 2, 4, 7, 9, 11, and 14.
(§3) Tumor volume was calculated by the mathematical formula 1 of Experimental Example 4. To investigate the toxicity according to the repeated intravenous administration of the compound of example 1, mouse weight changes were observed and presented in Table 5. Inhibition rate (%) in Table 6 was calculated by the mathematical formula 2, which indicates the inhibition of tumor growth by the compound presented by %.

[3] = test system: human kidney cancer cell line Caki-1; experiment: In vivo anticancer activity, intravenous injection 2, Caki-1 kidney cancer in nude mice; design: species or system mouse; conditions: Example 1 20 mg/kg/day, topotecan 2 mg/kg/day; for Tumor volume (mm^3) / Tumor weight: iv; for Inhibition rate (%) of tumor volume / Inhibition rate (%) of tumor weight: vs control; for Tumor weight: day 14 (final day)
Protocol: To evaluate the inhibition effect of the compound prepared in example 1 administered via intravenous injection on the growth of kidney cancer, in vivo anticancer activity in mouse was measured. Particularly, nude-mice were grouped for experimental and control groups (5 mice per group). Changes in body weight, tumor volume, and tumor weight were measured to evaluate in vivo anticancer activity.
as §2, §3

[4] = Mouse weight changes and symptoms, intraperitoneal administration (B16F10 metastasis experiment); type: in vivo; conditions: for Mouse weight changes (%): ip, Example 1 20 mg/kg/day, topotecan 2 mg/kg/2 day
Protocol: as §1

[5] = test system: B16F10 melanoma cell line; experiment: Tumor growth, B16F10 melanoma in C57BL mice, intraperitoneal administration; type: in vivo, mouse; conditions: Example 1 20 mg/kg/day, topotecan 2 mg/kg/2 day; for Tumor volume changes (mm^3): ip; for Inhibition rate (%) of tumor volume: vs control
Protocol: Particularly, the experimental group composed of 5 female mice (C57BL) at 6 weeks was transplanted with B16F10 melanoma cell line. After the cancer cells were grown, the mice were treated with the compound of formula 1 via intraperitoneal injection at the dose of […] for 5 days. Inhibition of angiogenesis and the tumor growth were observed. In the meantime, the control group was treated with the mixed solution comprising 10% DMAC, 10% cremophor and 80% buffer (pH 10) every day. The comparative group was treated with topotecan at the dose of 2 mg/kg once every other day. Weight changes and the newly generated blood vessels were measured and the results are shown in Table 7, Table 8, FIG. 7, and FIG. 8. The tumor volume shown in Table 8 was calculated by the mathematical formula 1 of experimental example 4 and the inhibition rate was calculated by the mathematical formula 2 of experimental example 4.

- symptoms during repeated intravenous administration ([2]; 20 mg/kg iv, nude mice): no specific symptom was observed
- Mouse weight changes (%) ([2]; day 0): 100.0 ± 0.0%
- Mouse weight changes (%) ([2]; day 2): 104.7 ± 1.7%
- Mouse weight changes (%) ([2]; day 4): 105.3 ± 2.2%
- Mouse weight changes (%) ([2]; day 7): 105.5 ± 3.1%
- Mouse weight changes (%) ([2]; day 9): 106.6 ± 4.9%
- Mouse weight changes (%) ([2]; day 11): 107.3 ± 6.8%
- Mouse weight changes (%) ([2]; day 14): 109.5 ± 6.4%
- symptoms during repeated intraperitoneal injection ([4]; 20 mg/kg ip, C57BL mice, 12 days): no specific symptom was observed
- Mouse weight changes (%) ([4]; day 0): 100.0 ± 0.0%
- Mouse weight changes (%) ([4]; day 2): 98.7 ± 3.4%
- Mouse weight changes (%) ([4]; day 5): 101.2 ± 4.6%
- Mouse weight changes (%) ([4]; day 7): 103.4 ± 3.8%
- Mouse weight changes (%) ([4]; day 9): 107.6 ± 2.8%
- Mouse weight changes (%) ([4]; day 12): 107.6 ± 3.3%
Compound: COC(=O)c1cccc(NC(=O)/C=C/Oc2ccc(C34CC5CC(CC(C5)C3)C4)cc2)c1 [Example 1, (E)-3-[3-(4-Adamantan-1-yl-phenoxy)-acryloylamino]-benzoic acid methyl ester]
- Metastasis colony number [1]: 207 and 207.0 ± 47.5
- Metastasis inhibition rate (%) [1]: 32.5%
- body weight on the final day of observation (day 14) compared with control ([2]; 20 mg/kg iv, nude mice): not significantly reduced
- Tumor volume (mm^3) ([3]; day 0): 0.0 ± 0.0 mm^3
- Tumor volume (mm^3) ([3]; day 2): 17.1 ± 2.0 mm^3
- Inhibition rate (%) of tumor volume ([3]; day 2): 18.4%
- Tumor volume (mm^3) ([3]; day 4): 41.4 ± 13.5 mm^3
- Inhibition rate (%) of tumor volume ([3]; day 4): 21.6%
- Tumor volume (mm^3) ([3]; day 7): 77.6 ± 11.8 mm^3
- Inhibition rate (%) of tumor volume ([3]; day 7): 24.2%
- Tumor volume (mm^3) ([3]; day 9): 107.0 ± 18.5 mm^3
- Inhibition rate (%) of tumor volume ([3]; day 9): 28.2%
- Tumor volume (mm^3) ([3]; day 11): 141.9 ± 14.8 mm^3
- Inhibition rate (%) of tumor volume ([3]; day 11): 30.6%
- Tumor weight [3]: 640.0 ± 61.8 mg
- Tumor volume (mm^3) ([3]; day 14): 200.2 ± 34.2 mm^3
- Inhibition rate (%) of tumor volume ([3]; day 14): 30% and 30.9%
- Inhibition rate (%) of tumor weight ([3]; day 14): 29.6%
- body weight on the final day of observation (day 12) compared with control ([4]; 20 mg/kg ip, C57BL mice): not significantly reduced
- Tumor volume changes (mm^3) ([5]; day 0): 0.0 ± 0.0 mm^3
- Tumor volume changes (mm^3) ([5]; day 3): 26.8 ± 3.6 mm^3
- Inhibition rate (%) of tumor volume ([5]; day 3): 19.7%
- Tumor volume changes (mm^3) ([5]; day 4): 36.4 ± 4.8 mm^3
- Inhibition rate (%) of tumor volume ([5]; day 4): 22.5%
- Tumor volume changes (mm^3) ([5]; day 5): 55.8 ± 5.8 mm^3
- Inhibition rate (%) of tumor volume ([5]; day 5): 28.9%

- Mouse weight changes (%) ([2]; day 0): 100.0 ± 0.0%
- Mouse weight changes (%) ([2]; day 2): 104.7 ± 1.9%
- Mouse weight changes (%) ([2]; day 4): 103.8 ± 3.8%
- Mouse weight changes (%) ([2]; day 7): 103.4 ± 2.6%
- Mouse weight changes (%) ([2]; day 9): 101.8 ± 3.6%
- Mouse weight changes (%) ([2]; day 11): 103.0 ± 3.6%
- Mouse weight changes (%) ([2]; day 14): 102.9 ± 5.3%
- Mouse weight changes (%) ([4]; day 0): 100.0 ± 0.0%
- Mouse weight changes (%) ([4]; day 2): 101.0 ± 2.9%
- Mouse weight changes (%) ([4]; day 5): 103.5 ± 6.1%
- Mouse weight changes (%) ([4]; day 7): 104.0 ± 4.6%
- Mouse weight changes (%) ([4]; day 9): 104.3 ± 6.2%
- Mouse weight changes (%) ([4]; day 12): 103.7 ± 5.5%
Compound: CC[C@@]1(O)C(=O)OCc2c1cc1n(c2=O)Cc2cc3c(CN(C)C)c(O)ccc3nc2-1 [topotecan, reference compound]
- Metastasis colony number [1]: 148.3 ± 49.4
- Metastasis inhibition rate (%) [1]: 51.7%
- Tumor volume (mm^3) ([3]; day 0): 0.0 ± 0.0 mm^3
- Tumor volume (mm^3) ([3]; day 2): 16.7 ± 2.3 mm^3
- Inhibition rate (%) of tumor volume ([3]; day 2): 20.1%
- Tumor volume (mm^3) ([3]; day 4): 38.7 ± 4.8 mm^3
- Inhibition rate (%) of tumor volume ([3]; day 4): 26.6%
- Tumor volume (mm^3) ([3]; day 7): 67.8 ± 8.6 mm^3
- Inhibition rate (%) of tumor volume ([3]; day 7): 33.8%
- Tumor volume (mm^3) ([3]; day 9): 88.5 ± 19.6 mm^3
- Inhibition rate (%) of tumor volume ([3]; day 9): 40.6%
- Tumor volume (mm^3) ([3]; day 11): 120.9 ± 36.0 mm^3
- Inhibition rate (%) of tumor volume ([3]; day 11): 40.9%
- Tumor weight [3]: 472.4 ± 137.6 mg
- Tumor volume (mm^3) ([3]; day 14): 156.9 ± 51.3 mm^3
- Inhibition rate (%) of tumor volume ([3]; day 14): 45.8%
- Inhibition rate (%) of tumor weight ([3]; day 14): 48.0%
- Tumor volume changes (mm^3) ([5]; day 0): 0.0 ± 0.0 mm^3
- Tumor volume changes (mm^3) ([5]; day 3): 20.9 ± 2.6 mm^3
- Inhibition rate (%) of tumor volume ([5]; day 3): 37.4%
- Tumor volume changes (mm^3) ([5]; day 4): 27.1 ± 2.3 mm^3
- Inhibition rate (%) of tumor volume ([5]; day 4): 42.4%
- Tumor volume changes (mm^3) ([5]; day 5): 42.9 ± 4.5 mm^3
- Inhibition rate (%) of tumor volume ([5]; day 5): 45.4%
